Measured values from patent publication US11278530B2, “Polycyclic amides as muscarinic M1 receptor positive allosteric modulators” (SUVEN LIFE SCIENCES LIMITED, priority 2017, dated 2022).

Legend:
[1] = Rodent pharmacokinetic study; type: in vivo, Male Wistar rats; details: male, Wistar, rat, plasma; for bioavailability: oral 3 mg/kg vs i.v. 1 mg/kg, read-out: F (bioavailability)
Method: Rodent Pharmacokinetic Study
Male Wistar rats (260±50 grams) were used as experimental animals. Animals were housed individually in polypropylene cage. Two days prior to study, male Wistar rats were anesthetized with isoflurane for surgical placement of jugular vein catheter. Rats were randomly divided for oral (3 mg/kg) and intravenous (i.v) (1 mg/kg) dosing (n=3/group) and fasted overnight before oral dosing (p.o.). However, rats allocated to intravenous (i.v.) dosing food and water was provided ad libitum.
At pre-determined point, blood was collected through jugular vein and replenished with an equivalent volume of normal saline. Collected blood was transferred into a labelled eppendorf tube containing 10 μL of heparin as an anticoagulant. Typically blood samples were collected at following time points: 0.08, 0.25, 0.5, 1, 2, 4, 6, 8, and 24 h post dose. Blood was centrifuged at 4000 rpm for 10 minutes. Plasma was separated and stored frozen at −80° C. until analysis. The concentrations of the test compounds were quantified in plasma by qualified LC-MS/MS method using suitable extraction technique. The test compounds were quantified in the calibration range around 1-1000 ng/mL in plasma. Study samples were analyzed using calibration samples in the batch and quality control samples spread across the batch.
Pharmacokinetic parameters Cmax, Tmax (h), AUCt, T1/2, clearance and bioavailability (F) were calculated by non-compartmental model using standard non-compartmental model by using Phoenix WinNonlin 6.0.2 or 6.0.3 version Software package.

[2] = target: T1, recombinant human Muscarinic M1 receptor (Homo sapiens, UniProt P11229); assay: Allosteric potency EC50 for Muscarinic M1 receptor, CHO pCRE-Luc reporter cell-based assay with EC20 of acetylcholine; details: CHO cells, human M1, luciferase reporter, in presence of EC20 of acetylcholine, 4 h
T1 sequence (P11229 1-460): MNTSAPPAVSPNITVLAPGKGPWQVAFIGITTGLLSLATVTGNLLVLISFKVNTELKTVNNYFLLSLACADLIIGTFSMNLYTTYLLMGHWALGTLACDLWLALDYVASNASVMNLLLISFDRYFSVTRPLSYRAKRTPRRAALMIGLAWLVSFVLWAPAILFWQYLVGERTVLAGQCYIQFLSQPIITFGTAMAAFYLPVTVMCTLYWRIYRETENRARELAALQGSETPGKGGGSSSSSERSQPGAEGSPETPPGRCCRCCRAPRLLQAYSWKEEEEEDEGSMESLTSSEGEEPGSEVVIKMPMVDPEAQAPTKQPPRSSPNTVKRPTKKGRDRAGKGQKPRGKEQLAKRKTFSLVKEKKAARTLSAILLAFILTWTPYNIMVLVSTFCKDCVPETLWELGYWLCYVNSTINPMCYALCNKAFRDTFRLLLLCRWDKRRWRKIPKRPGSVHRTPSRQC
Method: Determination of allosteric potency EC50 values for Muscarinic M1 receptor:
A stable CHO cell line expressing recombinant human Muscarinic M1 receptor and pCRE-Luc reporter system was used for cell-based assay. The assay offers a non-radioactive based approach to determine binding of a compound to GPCRs. In this specific assay, the level of intracellular cyclic AMP which is modulated by activation or inhibition of the receptor is measured. The recombinant cells harbor luciferase reporter gene under the control of cAMP response element.
The above cells were grown in 96 well clear bottom white plates in Hams F12 medium containing 10% fetal bovine serum (FBS). Prior to the addition of compounds or standard agonist, cells were serum starved overnight. Increasing concentrations of test compounds were added along with EC20 of acetylcholine in OptiMEM medium to the cells. The incubation was continued at 37° C. in CO2 incubator for 4 h. Medium was removed and cells were washed with phosphate buffered saline. The cells were lysed and luciferase activity was measured in a Luminometer. Luminescence counts in each concentrations of test item were normalized to the acetylcholine induced maximum response and the data was analyzed using Graphpad software. EC50 values of the compounds were defined as the concentration required in stimulating the luciferase activity by 50% in presence of EC20 of acetylcholine.

[3] = Rodent brain penetration study; type: in vivo, Male Wistar rats; details: male, Wistar, brain and plasma, po; rat, 3 mg/kg, p.o. @ 1.0 hr, brain-plasma ratio; read-out: Single dose Rat Brain Penetration (Cb/Cp)
Method: Rodent Brain Penetration Study
Male Wistar rats (260±40 grams) were used as experimental animals. Three animals were housed in each cage. Animals were given water and food ad libitum throughout the experiment and maintained on a 12 h light/dark cycle.
Brain penetration was determined in discrete manner in rats. One day prior to dosing day, male Wistar rats were acclimatized and randomly grouped according to their weight. At each time point (0.5, 1 and 2 h) n=3 animals were used.
The test compounds were suitably preformulated and administered orally at (free base equivalent) 3 mg/kg. Blood samples were removed via cardiac puncture by using isoflurane anesthesia. The animals were sacrificed to collect brain tissue. Plasma was separated and brain samples were homogenized and stored frozen at −20° C. until analysis. The concentrations of the test compounds in plasma and brain were determined using LC-MS/MS method.
The test compounds were quantified in plasma and brain homogenate by qualified LC-MS/MS method using suitable extraction technique. The test compounds were quantified in the calibration range of 1-500 ng/mL in plasma and brain homogenate. Study samples were analyzed using calibration samples in the batch and quality control samples spread across the batch.

SMILES | AUC(0-t) ([1]; iv, i.v. 1 mg/kg) | half-life ([1]; iv, i.v. 1 mg/kg) | clearance ([1]; iv, i.v. 1 mg/kg) | bioavailability [1] | AUC(0-t) ([1]; oral 3 mg/kg) | Cmax ([1]; oral 3 mg/kg) | Tmax ([1]; oral 3 mg/kg) | half-life ([1]; oral 3 mg/kg) | EC50 [2] | Kp at 1 h [3]
Cc1c(Cc2ccnc(Cl)c2)cc(C(=O)N[C@H]2CCCC[C@@H]2O)c2ncccc12 [Example 1, N-(cis-1S,2S-2-Hydroxycyclohexyl)-6-(2-chloropyridin-4-ylmethyl)-5-methylquinoline-8-carboxamide] | 492 ± 22 ng·h/mL | 78 ± 30 min | 34 ± 1.5 mL/min/kg | 24 ± 8% | 360 ± 117 ng·h/mL | 150 ± 39 ng/mL | 0.5 to 1 h | 66 ± 6 min | 719 nM | 0.54 ± 0.04
Cc1c(Cc2cccc(F)c2F)cc(C(=O)N[C@H]2CCCC[C@@H]2O)c2ncccc12 [Example 2, N-(cis-1S,2S-2-Hydroxycyclohexyl)-6-(2,3-difluorobenzyl)-5-methylquinoline-8-carboxamide] | 367 ± 39 ng·h/mL | 96 ± 18 min | 45 ± 5 mL/min/kg | 14 ± 5% | 158 ± 58 ng·h/mL | 48 ± 23 ng/mL | 0.5 to 2 h | 120 ± 12 min | 1680 nM | 1.74 ± 0.03
Cc1c(Cc2ccc(Cl)nc2)cc(C(=O)N[C@H]2CCCC[C@@H]2O)c2ncccc12 [Example 6, N-(cis-1S,2S-2-Hydroxycyclohexyl)-6-(2-chloropyridin-5-ylmethyl)-5-methylquinoline-8-carboxamide] | 664 ± 81 ng·h/mL | 90 ± 36 min | 25 ± 3.3 mL/min/kg | 50 ± 2% | 1000 ± 38 ng·h/mL | 582 ± 72 ng/mL | 0.5 h | 78 ± 12 min | 1670 nM | 0.26 ± 0.04
Cc1c(Cc2ccc(-c3cnn(C)c3)c(F)c2F)cc(C(=O)N[C@H]2CCCC[C@@H]2O)c2ncccc12 [Example 8, N-(cis-1S,2S-2-Hydroxycyclohexyl)-6-[2,3-difluoro-4-(1-methyl-1H-pyrazol-4-yl)-benzyl]-5-methylquinoline-8-carboxamide] | 6150 ± 485 ng·h/mL | 198 ± 42 min | 2.7 ± 0.2 mL/min/kg | 100 ± 16% | 18400 ng·h/mL | 2330 ± 441 ng/mL | 2 h | 216 ± 12 min | 168 nM | 
Cc1c(Cc2ccc(-n3cccn3)cc2)cc(C(=O)N[C@H]2CCCC[C@@H]2O)c2c1NCCO2 [Example 17, N-(cis-1S,2S-2-Hydroxycyclohexyl)-6-(4-pyrazol-1-yl-benzyl)-5-methyl-3,4-dihydro-2H-benzo[1,4]oxazine-8-carboxamide] | 635 ± 70 ng·h/mL | 78 ± 12 min | 26 ± 3 mL/min/kg | 37 ± 6% | 705 ± 118 ng·h/mL | 288 ± 26.5 ng/mL | 1 h | 78 ± 6 min | 1120 nM | 0.32 ± 0.06
Cc1nc2c(C(=O)N[C@H]3CCCC[C@@H]3O)cc(Cc3ccc(-n4cccn4)cc3)c(C)c2[nH]1 [Example 38, N-(cis-1S,2S-2-Hydroxycyclohexyl)-2,7-dimethyl-6-(4-pyrazol-1-yl-benzyl)-1H-benzimidazole-4-carboxamide] |  |  |  |  |  |  |  |  | 694 nM | 
Cc1nc2c(C(=O)N[C@H]3CCCC[C@@H]3O)cc(Cc3ccc(-c4cnn(C)c4)cc3)c(C)c2[nH]1 [Example 39, N-(cis-1S,2S-2-Hydroxycyclohexyl)-2,7-dimethyl-6-[4-(1-methyl-1H-pyrazol-4-yl)-benzyl]-1H-benzimidazole-4-carboxamide] |  |  |  |  |  |  |  |  | 895 nM | 
Cc1nc2c(C(=O)N[C@H]3CCCC[C@@H]3O)cc(Cc3ccc(-c4cscn4)cc3)c(C)c2[nH]1 [Example 40, N-(cis-1S,2S-2-Hydroxycyclohexyl)-2,7-dimethyl-6-(4-thiazol-4-yl-benzyl)-1H-benzimidazole-4-carboxamide] |  |  |  |  |  |  |  |  | 1500 nM | 
Cc1c(Cc2ccc(-c3cnn(C)c3)cc2F)cc(C(=O)N[C@@H]2CCCC[C@H]2O)c2c1ncn2C [Example 41, N-(cis-1S,2S-2-Hydroxycyclohexyl)-3,7-dimethyl-6-[2-fluoro-4-(1-methyl-1H-pyrazol-4-yl)-benzyl]-3H-benzimidazole-4-carboxamide] |  |  |  |  |  |  |  |  | 1060 nM | 
Cc1c(Cc2ccc(-c3cnn(C)c3)cc2)cc(C(=O)N[C@@H]2CCCC[C@H]2O)c2c1ncn2C [Example 42, N-(cis-1S,2S-2-Hydroxycyclohexyl)-3,7-dimethyl-6-[4-(1-methyl-1H-pyrazol-4-yl)-benzyl]-3H-benzimidazole-4-carboxamide] |  |  |  |  |  |  |  |  | 10000 nM | 
Cc1c(Cc2ccc(-c3cnn(C)c3)c(F)c2F)cc(C(=O)N[C@@H]2CCCC[C@H]2O)c2c1ncn2C [Example 43, N-(cis-1S,2S-2-Hydroxycyclohexyl)-3,7-dimethyl-6-[2,3-difluoro-4-(1-methyl-1H-pyrazol-4-yl)-benzyl]-3H-benzimidazole-4-carboxamide] |  |  |  |  |  |  |  |  | 1460 nM | 
Cc1c(Cc2ccc(-c3cnn(C)c3)nc2)cc(C(=O)N[C@@H]2CCCC[C@H]2O)c2c1ncn2C [Example 44, N-(cis-1S,2S-2-Hydroxycyclohexyl)-3,7-dimethyl-6-[6-(1-methyl-1H-pyrazol-4-yl)-pyridin-3-ylmethyl]-3H-benzimidazole-4-carboxamide] |  |  |  |  |  |  |  |  | 208 nM | 
Cc1c(Cc2ccc(-c3cscn3)cc2)cc(C(=O)N[C@@H]2CCCC[C@H]2O)c2c1ncn2C [Example 45, N-(cis-1S,2S-2-Hydroxycyclohexyl)-3,7-dimethyl-6-[4-(thiazol-4-yl)-benzyl]-3H-benzimidazole-4-carboxamide] |  |  |  |  |  |  |  |  | 10000 nM | 
Cc1cc2c(C)c(Cc3ccc(-c4cnn(C)c4)cc3)cc(C(=O)N[C@H]3CCCC[C@@H]3O)c2o1 [Example 46, N-(cis-1S,2S-2-Hydroxycyclohexyl)-2,4-dimethyl-5-[4-(1-methyl-1H-pyrazol-4-yl)-benzyl]-benzofuran-7-carboxamide] |  |  |  |  |  |  |  |  | 299 nM | 
